In the NIST ThermoML archive (doi:10.1016/j.jct.2011.05.003):

Assay: xn = mol fraction of the nth substance listed
Conditions: Liquid; for speed of sound: 101 kPa, Sing-around technique in a fixed-path interferometer; for mass density: 101.3 kPa, Vibrating tube method

CCCCCC(C)=O [2-heptanone] + CCN(CC)CC
Conditions	mass density [kg/m3]	speed of sound [m/s]
293.15 K, x1 = 0.0636	733.182	1141.8
293.15 K, x1 = 0.1061	737.185	1148.4
293.15 K, x1 = 0.1585	741.934	1156
293.15 K, x1 = 0.2077	746.426	1163.5
293.15 K, x1 = 0.2536	750.6	1170.4
293.15 K, x1 = 0.3091	755.621	1178.7
293.15 K, x1 = 0.3614	760.322	1186.6
293.15 K, x1 = 0.4043	764.18	1193.1
293.15 K, x1 = 0.4621	769.325	1201.9
293.15 K, x1 = 0.5022	772.887	1208
293.15 K, x1 = 0.5577	777.79	1216.3
293.15 K, x1 = 0.6078	782.199	1223.9
293.15 K, x1 = 0.6604	786.734	1231.8
293.15 K, x1 = 0.7001	790.167	1237.8
293.15 K, x1 = 0.749	794.387	1245
293.15 K, x1 = 0.7968	798.46	1252.1
293.15 K, x1 = 0.8517	803.051	1260.2
293.15 K, x1 = 0.9008	807.18	1267.3
293.15 K, x1 = 0.9507	811.366	1274.7
298.15 K, x1 = 0.0574	727.994	1119.4
298.15 K, x1 = 0.105	732.47	1126.8
298.15 K, x1 = 0.1619	737.667	1135.5
298.15 K, x1 = 0.2068	741.77	1142.1
298.15 K, x1 = 0.2598	746.582	1150.2
298.15 K, x1 = 0.3075	750.925	1157.5
298.15 K, x1 = 0.3578	755.443	1165.2
298.15 K, x1 = 0.4081	759.984	1172.9
298.15 K, x1 = 0.4548	764.166	1180.1
298.15 K, x1 = 0.5032	768.476	1187.5
298.15 K, x1 = 0.5545	773.017	1195.4
298.15 K, x1 = 0.6103	777.928	1204
298.15 K, x1 = 0.6579	782.088	1211.3
298.15 K, x1 = 0.6994	785.697	1217.6
298.15 K, x1 = 0.7484	789.941	1225.1
298.15 K, x1 = 0.8031	794.633	1233.3
298.15 K, x1 = 0.8576	799.228	1241.5
298.15 K, x1 = 0.9014	802.909	1247.9
298.15 K, x1 = 0.9462	806.662	1254.6
303.15 K, x1 = 0.0612	723.838	1100.1
303.15 K, x1 = 0.1056	727.95	1106.8
303.15 K, x1 = 0.1602	732.935	1115.1
303.15 K, x1 = 0.2068	737.166	1122.2
303.15 K, x1 = 0.2606	742.09	1130.5
303.15 K, x1 = 0.3086	746.453	1137.9
303.15 K, x1 = 0.3583	750.968	1145.7
303.15 K, x1 = 0.4082	755.492	1153.5
303.15 K, x1 = 0.4553	759.737	1160.8
303.15 K, x1 = 0.5042	764.098	1168.4
303.15 K, x1 = 0.5983	772.43	1183.1
303.15 K, x1 = 0.6536	777.279	1191.6
303.15 K, x1 = 0.7031	781.622	1199.3
303.15 K, x1 = 0.7452	785.267	1205.8
303.15 K, x1 = 0.8088	790.717	1215.5
303.15 K, x1 = 0.8489	794.102	1221.5
303.15 K, x1 = 0.9007	798.491	1229.2
303.15 K, x1 = 0.9503	802.71	1235.8
